Reference: patent EP1377579B1 (Aventis Pharmaceuticals Inc., priority 2000, dated 2002)
pIC50: −log10 of the molar value. Structures can show the parent of a compound that is named as a salt.

How the values were obtained:
cdk2/cyclin E = cdk2/cyclin E (Homo sapiens, UniProt P24941); experiment: Cyclin-dependent kinase assay, cdk2/cyclin E; settings: CDK2 IC50, nM, GST-pRb substrate, 10 µM ATP
MDA-MB-435 = experiment: In vitro proliferation assay (MTT), MDA-MB-435; type: cell-based, human; settings: Homo sapiens, MDA-MB-435, MTT assay; value (SD, n) where given; read-out: MB-435 Breast (IC50 µM)
Summary of the method: (§1)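 A570 readout of DMSO-solubilized MTT formazan after 3-day compound exposure; IC50 from raw data. Cells plated 1000–2500/well and recovered overnight before dosing.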

cdk1/cyclin B = cdk1/cyclin B (Homo sapiens, UniProt P06493); experiment: Cyclin-dependent kinase assay, cdk1/cyclin B; settings: CDK1 IC50, nM, Histone H1, 10 µM ATP
cdk4/cyclin D1 = cdk4/cyclin D1 (Homo sapiens, UniProt P11802); experiment: Cyclin-dependent kinase assay, cdk4/cyclin D1; type: biochemical; settings: cyclin D1/cdk4; GST-pRb substrate, 10 µM ATP
PC-3 = experiment: In vitro proliferation assay (MTT), PC-3; type: cell-based, human; settings: Homo sapiens, PC-3, MTT assay; value (SD, n) where given; read-out: PC-3 Prostate (IC50 µM)
Summary of the method: as §1

Chain of cdk1/cyclin B (P06493 whole entry): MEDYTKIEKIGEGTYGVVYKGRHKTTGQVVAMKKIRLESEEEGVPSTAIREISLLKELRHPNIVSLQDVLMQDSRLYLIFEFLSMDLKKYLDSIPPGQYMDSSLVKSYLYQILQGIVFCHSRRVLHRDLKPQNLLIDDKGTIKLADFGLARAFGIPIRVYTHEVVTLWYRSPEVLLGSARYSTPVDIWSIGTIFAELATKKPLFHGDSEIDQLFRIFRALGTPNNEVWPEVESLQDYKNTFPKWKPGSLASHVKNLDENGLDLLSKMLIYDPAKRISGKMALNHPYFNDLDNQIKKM
Chain of cdk1/cyclin B (P14635 whole entry partner): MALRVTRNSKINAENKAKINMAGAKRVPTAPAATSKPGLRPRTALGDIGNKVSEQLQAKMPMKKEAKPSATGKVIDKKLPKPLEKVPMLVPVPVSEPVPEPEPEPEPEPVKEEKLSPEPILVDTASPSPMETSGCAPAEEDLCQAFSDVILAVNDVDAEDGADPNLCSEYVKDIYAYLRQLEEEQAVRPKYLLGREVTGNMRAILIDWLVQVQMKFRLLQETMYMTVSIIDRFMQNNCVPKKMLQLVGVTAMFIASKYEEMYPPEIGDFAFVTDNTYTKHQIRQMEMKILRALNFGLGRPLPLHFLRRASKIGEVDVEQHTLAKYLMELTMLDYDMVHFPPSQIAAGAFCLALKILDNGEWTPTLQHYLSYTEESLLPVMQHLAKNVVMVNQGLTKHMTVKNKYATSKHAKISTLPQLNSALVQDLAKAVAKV
Chain of cdk4/cyclin D1 (P11802 whole entry): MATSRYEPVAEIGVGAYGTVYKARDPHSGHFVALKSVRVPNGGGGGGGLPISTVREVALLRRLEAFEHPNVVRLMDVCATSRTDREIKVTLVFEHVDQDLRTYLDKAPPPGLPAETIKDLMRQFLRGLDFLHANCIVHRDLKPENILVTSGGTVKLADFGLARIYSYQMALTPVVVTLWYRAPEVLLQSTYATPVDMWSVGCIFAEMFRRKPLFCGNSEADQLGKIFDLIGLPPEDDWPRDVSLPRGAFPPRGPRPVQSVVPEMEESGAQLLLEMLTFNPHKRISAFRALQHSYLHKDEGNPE
Chain of cdk4/cyclin D1 (P24385 whole entry partner): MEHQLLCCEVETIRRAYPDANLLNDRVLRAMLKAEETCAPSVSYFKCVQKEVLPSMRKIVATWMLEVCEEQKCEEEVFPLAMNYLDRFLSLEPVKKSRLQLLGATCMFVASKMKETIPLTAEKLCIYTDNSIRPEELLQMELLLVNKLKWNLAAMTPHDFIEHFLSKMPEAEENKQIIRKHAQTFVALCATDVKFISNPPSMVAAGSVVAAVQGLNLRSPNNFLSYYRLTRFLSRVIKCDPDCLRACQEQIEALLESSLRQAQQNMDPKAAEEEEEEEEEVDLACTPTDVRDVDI

Row | SMILES | IC50 (cdk2/cyclin E) [nM] | IC50 (MDA-MB-435) [µM] | IC50 (cdk1/cyclin B) [nM] | pIC50 (cdk4/cyclin D1) | IC50 (PC-3) [µM]
1 | N[C@H]1CC[C@H](Nc2nc(NC3CCN(S(=O)(=O)c4ccccc4[N+](=O)[O-])CC3)c3ncn(C4CCCC4)c3n2)CC1 [compound 143, trans-N^2-(4-Amino-cyclohexyl)-9-cyclopentyl-N^6-[1-(2-nitro-benzenesulfonyl)-piperidin-4-yl]-9H-purine-2,6-diamine dihydrochloride] | 28 | 0.61 | 7.5 | 6.81 | 0.45
2 | CC(C)n1cnc2c(NC3CCN(S(=O)(=O)c4ccc(C#N)cc4)CC3)nc(N[C@H]3CC[C@H](N)CC3)nc21 [compound 145, trans-4-{4-[2-(4-Amino-cyclohexylamino)-9-isopropyl-9H-purin-6-ylamino]-piperidine-1-sulfonyl} -benzonitrile dihydrochloride] | 70 | 4.12 | 21 | 5.06 | 6.32
3 | CCNC(=O)N1CCC(Nc2nc(N[C@H]3CC[C@H](N)CC3)nc3c2ncn3C2CCCC2)CC1 [compound 148, trans-4-[2-(4-Amino-cyclohexylamino)-9-cyclopentyl-9H-purin-6-ylamino]-piperidine-1-carboxylic acid ethylamide dihydrochloride] | 61 | 4.7 | 197 | 6.16 | 4.79
4 | COc1ccc(NC(=O)N2CCC(Nc3nc(N[C@H]4CC[C@H](N)CC4)nc4c3ncn4C3CCCC3)CC2)c(OC)c1 [compound 151, trans-4-[2-(4-Amino-cyclohexylamino)-9-cyclopentyl-9H-purin-6-ylamino]-piperidine-1-carboxylic acid (2,4-dimethoxy-phenyl)-amide dihydrochloride] | 32 | 0.44 | 60 | 6.41 | 0.5
5 | N[C@H]1CC[C@H](Nc2nc(NC3CCN(C(=O)Nc4cccc(F)c4)CC3)c3ncn(C4CCCC4)c3n2)CC1 [compound 152, trans-4-[2-(4-Amino-cyclohexylamino)-9-cyclopentyl-9H-purin-6-ylamino]-piperidine-1-carboxylic acid (3-fluoro-phenyl)-amide dihydrochloride] | 42 | 0.3 | 17 | 6.12 | 0.38
6 | COc1ccc(NC(=O)N2CCC(Nc3nc(N[C@H]4CC[C@H](N)CC4)nc4c3ncn4C3CCCC3)CC2)cc1 [compound 153, trans-4-[2-(4-Amino-cyclohexylamino)-9-cyclopentyl-9H-purin-6-ylamino]-piperidine-1-carboxylic acid (4-methoxy-phenyl)-amide dihydrochloride] | 30 | 0.38 | 20 | 6.35 | 0.45
7 | COc1cccc(NC(=O)N2CCC(Nc3nc(N[C@H]4CC[C@H](N)CC4)nc4c3ncn4C3CCCC3)CC2)c1 [compound 155, trans-4-[2-(4-Amino-cyclohexylamino)-9-cyclopentyl-9H-purin-6-ylamino]-piperidine-1-carboxylic acid (3-methoxy-phenyl)-amide dihydrochloride] | 43 | 0.33 | 20 | 6.32 | 0.44
8 | CC(C)NC(=O)N1CCC(Nc2nc(N[C@H]3CC[C@H](N)CC3)nc3c2ncn3C2CCCC2)CC1 [compound 157, trans-4-[2-(4-Amino-cyclohexylamino)-9-cyclopentyl-9H-purin-6-ylamino]-piperidine-1-carboxylic acid isopropylamide dihydrochloride] | 32 | 2.54 | 310 | 5.69 | 3.34
9 | N[C@H]1CC[C@H](Nc2nc(NC3CCN(C(=O)Nc4ccccc4C(F)(F)F)CC3)c3ncn(C4CCCC4)c3n2)CC1 [compound 158, trans-4-[2-(4-Amino-cyclohexylamino)-9-cyclopentyl-9H-purin-6-ylamino]-piperidine-1-carboxylic acid (2-trifluoromethyl-phenyl)-amide dihydrochloride] | 87 | 0.29 | 82 | 6.08 | 0.38
10 | C[C@@H](NC(=O)N1CCC(Nc2nc(N[C@H]3CC[C@H](N)CC3)nc3c2ncn3C2CCCC2)CC1)c1ccccc1 [compound 160, trans-4-[2-(4-Amino-cyclohexylamino)-9-cyclopentyl-9H-purin-6-ylamino]-piperidine-1-carboxylic acid ((R)-1-phenyl-ethyl)-amide dihydrochloride] | 94 | 1.36 | 85 | 6.45 | 1.69
11 | C[C@H](NC(=O)N1CCC(Nc2nc(N[C@H]3CC[C@H](N)CC3)nc3c2ncn3C2CCCC2)CC1)c1ccccc1 [compound 161, trans-4-[2-(4-Amino-cyclohexylamino)-9-cyclopentyl-9H-purin-6-ylamino]-piperidine-1-carboxylic acid ((S)-1-phenyl-ethyl)-amide dihydrochloride] | 78 | 1.01 | 56 | 6.22 | 0.96
12 | C=CCNC(=O)N1CCC(Nc2nc(N[C@H]3CC[C@H](N)CC3)nc3c2ncn3C2CCCC2)CC1 [compound 164, trans-4-[2-(4-Amino-cyclohexylamino)-9-cyclopentyl-9H-purin-6-ylamino]-piperidine-1-carboxylic acid allylamide dihydrochloride] | 86 | 5.03 | 151 | 6.13 | 4.99
13 | N[C@H]1CC[C@H](Nc2nc(NC3CCN(C(=O)Nc4ccc(Cl)cc4Cl)CC3)c3ncn(C4CCCC4)c3n2)CC1 [compound 167, trans-4-[2-(4-Amino-cyclohexylamino)-9-cyclopentyl-9H-purin-6-ylamino]-piperidine-1-carboxylic acid (2,4-dichloro-phenyl)-amide dihydrochloride] | 54 | 0.28 | 4 | 7.20 | 0.38
14 | N[C@H]1CC[C@H](Nc2nc(NC3CCN(C(=O)NC(=O)c4ccccc4)CC3)c3ncn(C4CCCC4)c3n2)CC1 [compound 172, trans-N-(1-{4-[2-(4-Amino-cyclohexylamino)-9-cyclopentyl-9H-purin-6-ylamino]-piperidin-1-yl}-methanoyl)-benzamide dihydrochloride] | 62 | 1.16 | 23 | 6.08 | 1.04
15 | CCOC(=O)NC(=O)N1CCC(Nc2nc(N[C@H]3CC[C@H](N)CC3)nc3c2ncn3C2CCCC2)CC1 [compound 173, trans-(1-{4-[2-(4-Amino-cyclohexylamino)-9-cyclopentyl-9H-purin-6-ylamino]-piperidin-1-yl}-methanoyl)-carbamic acid ethyl ester dihydrochloride] | 30 | 2.67 | 18 | 6.37 | 2.81
16 | N[C@H]1CC[C@H](Nc2nc(NC3CCN(C(=O)Nc4ccccc4OC(F)(F)F)CC3)c3ncn(C4CCCC4)c3n2)CC1 [compound 174, trans-4-[2-(4-Amino-cyclohexylamino)-9-cyclopentyl-9H-purin-6-ylamino]-piperidine-1-carboxylic acid (2-trifluoromethoxy-phenyl)-amide dihydrochloride] | 89 | 0.31 | 48 | 6.10 | 0.27
17 | N[C@H]1CC[C@H](Nc2nc(NC3CCN(C(=O)Nc4cc(C(F)(F)F)cc(C(F)(F)F)c4)CC3)c3ncn(C4CCCC4)c3n2)CC1 [compound 176, trans-4-[2-(4-Amino-cyclohexylamino)-9-cyclopentyl-9H-purin-6-ylamino]-piperidine-1-carboxylic acid (3,5-bis-trifluoromethyl-phenyl)-amide dihydrochloride] | 378 | 0.51 | 7 | 6.05 | 0.54
18 | CCCCCNC(=O)N1CCC(Nc2nc(N[C@H]3CC[C@H](N)CC3)nc3c2ncn3C2CCCC2)CC1 [compound 184, trans-4-[2-(4-Amino-cyclohexylamino)-9-cyclopentyl-9H-purin-6-ylamino]-piperidine-1-carboxylic acid pentylamide dihydrochloride] | 85 | 0.71 | 77 | 6.42 | 0.71
19 | CCCCCCNC(=O)N1CCC(Nc2nc(N[C@H]3CC[C@H](N)CC3)nc3c2ncn3C2CCCC2)CC1 [compound 185, trans-4-[2-(4-Amino-cyclohexylamino)-9-cyclopentyl-9H-purin-6-ylamino]-piperidine-1-carboxylic acid hexylamide dihydrochloride] | 79 | 0.29 | 72 | 6.55 | 0.41
20 | CC(=O)c1ccc(NC(=O)N2CCC(Nc3nc(N[C@H]4CC[C@H](N)CC4)nc4c3ncn4C3CCCC3)CC2)cc1 [compound 188, trans-4-[2-(4-Amino-cyclohexylamino)-9-cyclopentyl-9H-purin-6-ylamino]-piperidine-1-carboxylic acid (4-acetyl-phenyl)-amide dihydrochloride] | 31 | 0.48 | 14 | 6.77 | 0.5
